Legend:
Format in all cases: cell-based
[1] = biological target: T1, SMARCA2 (Homo sapiens, UniProt P51531); experiment: MSD SMARCA2 degradation in A549 cell line; conditions: for Dmax: A549, A549 cells; for Dmax / DC50: 24 h; for DC50 / SMARCA2 MSD A549 degradation 24 h: Average Dmax %: A549 cells; for DC50: read-out: SMARCA2 MSD A549 degradation 24 h: Average external-Abs DC50
Experimental: Example 10. MSD SMARCA2 Degradation in A549 Cell Line
Cells were seeded into 96-well plates (A549 cells: 2×10^4 cells/well/100 ul media) and incubated overnight. The next day, 200 nL compound were added into the intermediate plate with Echo (Labcyte 550) from source plate containing a 3-fold serial dilution from top concentration of 1 mM. The culture medium was changed with 8 0ul of fresh medium and 80 μL of 2× compound solution was added into the well to make a final concentration of 1000 nM, 333.3 nM, 111.1 nM, 37.04 nM, 12.35 nM, 4.115 nM, 1.372 nM, 0.457 nM, 0.152 nM and 0 nM (DMSO). The wells were mixed and then incubated for 24 hours. The media was aspirated from the cultures and 60 ul pre-chilled PIPA lysis buffer (Boston BioProducts BP-115D) with protease/phosphatase inhibitor (Roche 05892791001/Roche 04906837001) was added into the well to lyze the cells for 20 minutes at 4° C. The MSD plate (L15XA) was coated with 40 uL cell lysate and incubated at 4° C. overnight. The next day, the plate was washed three times with TBST (CST #9997S), 150 ul/well. The MSD plates was blocked with 150 ul blocking buffer per well and shaked for 1 hr at RT, 600 rpm. The blocking buffer was 3% Blocker A (MSD, R93BA-4) in TBST. The MSD plate was washed three times with 150 uL/well of TBST and 25 ul/well of detection antibody (Rabbit anti-SMARCA2/BRM antibody, 100 μg/mL, ab223735) was added at final concentration of 1 μg/mL diluted in 1% Blocking buffer and shaken for 1 hour at RT, 600 rpm. The MSD plate was washed three times with 150 ul/well of TBST and 25 ul/well of SULFO-TAG anti-rabbit antibody (MSD, R32AB-1) was added at final concentration of 1 μg/ml diluted in 1% Blocking buffer and shaken for 1 hour at RT, 600 rpm. The MSD plate was washed three times with 150 uL/well of TBST and 150 ul/well of 2× MSD reading buffer diluted from 4× (MSD, R92TC-2) with water was added. Lastly, the MSD instrument was read.
The letter codes for SMARCA2 degradation potency (DC50) include: A (<10 nM), B (10-50 nM), C (>50-100 nM), and D (>100 nM). The letter codes for the percentage of SMARCA degradation after 24 hours (Dmax %) include: A (>90% degradation), B (>70-90% degradation), C (50-70% degradation), and D (<50% degradation).

[2] = biological target: T2, SMARCA4 (Homo sapiens, UniProt P51532); experiment: SMARCA4 Western blot degradation in MV4-11 cells; conditions: 24 h; for Dmax: MV4-11, MV4-11 cells, read-out: SMARCA4 MSD MV411 degradation 24 h: average Dmax %; for DC50: MV4-11 cells, read-out: SMARCA4 MSD MV411 degradation 24 h: Mean external-Abs DC50
T2 construct: SMARCA2/SMARCA4 protein degradation selectivity in MV4-11 cells; endogenous in cells; host or cells: MV4-11
Experimental: Example 11. SMARCA2 and SMARCA4 Western Blot MV4-11 Degradation
Cells were seeded into 6-well plates (MV4-11:4×10^6 cells/well/1 ml) and 1 ml of 2× compound solution was added into the well to make the final concentration and the plates were mixed well and incubated for 24 hours (No cytotoxicity was observed). The cell were collected with media and spun at 3000 rpm for 5 minutes. The supernatant was aspirated and the well and the cells were washed with cold PBS once and combined for centrifugation again; the supernatant aspirated again. 200 uL pre-chilled RIPA lysis buffer (Boston BioProducts BP-115D) with protease/phosphatase inhibitor (Roche 05892791001/Roche 04906837001) was directly added into the tube to lyze the cells for 20 minutes on ice. The cell lysate were collected into EP tubes and spun at 13000 rpm for 20 minutes and 72 uL supernatant was transferred to a fresh EP tube containing 18 μL of 5× loading buffer (Beyotime Bio P0015) to make the loading samples. The samples were heated to 100° C. for 10 minutes and cooled to RT and microcentrifuged. 20 μL of samples were loaded onto SDS-PAGE gel (Novex, WG1402BOX) and the gel was run at 80 V for 20 minutes and 120 V for 1.5 hours. The samples were electrotransfer to a NC membrane using wet-transfer method with 250 mA for 2.5 hours. The membrane was blocked with LICOR blocking buffer (LI COR,927-50000) for 1 hour. The membrane was washed three times with TBST(CST #9997S), 5 minutes each. Incubation was performed with primary antibody prepared in blocking buffer with 0.1% Tween-20 (Solarbio, P8220) at 4° C. overnight (Anti-SMARCA2/BRM antibody (ab15597) 1:500; Anti-BRG1 antibody [EPR3912](ab108318) 1:1000; Rabbit anti-Bafl80 antibody [EPR15860](Abcam,ab196022) 1:1000; mouse anti-beta-Actin (8H10D10) (CST #3700) 1:10000). The membrane was washed three times with TBST, 5 minutes each. Incubation with secondary antibody was performed for 1 hour at RT (anti-rabbit IgG (Licor,926-32211) 1:5000; anti-mouse IgG (LI-COR, 926-68070) 1:5000). The membrane was washed three times with 5 minutes each and lastly the LiCOR was read.
The letter codes for SMARCA2/4 degradation potency (DC50) include: A (<1 nM), B (1-10 nM), C (>10-100 nM), and D (>100 nM). The letter codes for the percentage of SMARCA2/4 degradation after 24 hours (Dmax %) include: A (>90% degradation), B (>70-90% degradation), C (50-70% degradation), and D (<50% degradation). The letter codes of SMARCA2/4 selectivity include: A (>500 fold), B (>100-500 fold), C (10-100 fold), and D (<10 fold). Table 8. SMARCA2/4 Selectivity Results

[3] = biological target: T1, SMARCA2; experiment: SMARCA2 Western blot degradation in MV4-11 cells; parameters: SMARCA2/SMARCA4 protein degradation selectivity in MV4-11 cells; endogenous in cells; host or cells: MV4-11; conditions: for Dmax: MV4-11, MV4-11 cells, read-out: SMARCA2 MSD MV411 degradation 24 h: average Dmax %; for Dmax / DC50 / SMARCA2 MSD MV411 degradation 24 h: average Dmax %: 24 h; for DC50 / Selectivity in MV411 / SMARCA2 MSD MV411 degradation 24 h: average Dmax %: MV4-11 cells; for DC50: read-out: SMARCA2 MSD MV411 degradation 24 h: Mean external-Abs DC50; for Selectivity in MV411: SMARCA2/4 selectivity

T2 sequence (P51532 whole entry): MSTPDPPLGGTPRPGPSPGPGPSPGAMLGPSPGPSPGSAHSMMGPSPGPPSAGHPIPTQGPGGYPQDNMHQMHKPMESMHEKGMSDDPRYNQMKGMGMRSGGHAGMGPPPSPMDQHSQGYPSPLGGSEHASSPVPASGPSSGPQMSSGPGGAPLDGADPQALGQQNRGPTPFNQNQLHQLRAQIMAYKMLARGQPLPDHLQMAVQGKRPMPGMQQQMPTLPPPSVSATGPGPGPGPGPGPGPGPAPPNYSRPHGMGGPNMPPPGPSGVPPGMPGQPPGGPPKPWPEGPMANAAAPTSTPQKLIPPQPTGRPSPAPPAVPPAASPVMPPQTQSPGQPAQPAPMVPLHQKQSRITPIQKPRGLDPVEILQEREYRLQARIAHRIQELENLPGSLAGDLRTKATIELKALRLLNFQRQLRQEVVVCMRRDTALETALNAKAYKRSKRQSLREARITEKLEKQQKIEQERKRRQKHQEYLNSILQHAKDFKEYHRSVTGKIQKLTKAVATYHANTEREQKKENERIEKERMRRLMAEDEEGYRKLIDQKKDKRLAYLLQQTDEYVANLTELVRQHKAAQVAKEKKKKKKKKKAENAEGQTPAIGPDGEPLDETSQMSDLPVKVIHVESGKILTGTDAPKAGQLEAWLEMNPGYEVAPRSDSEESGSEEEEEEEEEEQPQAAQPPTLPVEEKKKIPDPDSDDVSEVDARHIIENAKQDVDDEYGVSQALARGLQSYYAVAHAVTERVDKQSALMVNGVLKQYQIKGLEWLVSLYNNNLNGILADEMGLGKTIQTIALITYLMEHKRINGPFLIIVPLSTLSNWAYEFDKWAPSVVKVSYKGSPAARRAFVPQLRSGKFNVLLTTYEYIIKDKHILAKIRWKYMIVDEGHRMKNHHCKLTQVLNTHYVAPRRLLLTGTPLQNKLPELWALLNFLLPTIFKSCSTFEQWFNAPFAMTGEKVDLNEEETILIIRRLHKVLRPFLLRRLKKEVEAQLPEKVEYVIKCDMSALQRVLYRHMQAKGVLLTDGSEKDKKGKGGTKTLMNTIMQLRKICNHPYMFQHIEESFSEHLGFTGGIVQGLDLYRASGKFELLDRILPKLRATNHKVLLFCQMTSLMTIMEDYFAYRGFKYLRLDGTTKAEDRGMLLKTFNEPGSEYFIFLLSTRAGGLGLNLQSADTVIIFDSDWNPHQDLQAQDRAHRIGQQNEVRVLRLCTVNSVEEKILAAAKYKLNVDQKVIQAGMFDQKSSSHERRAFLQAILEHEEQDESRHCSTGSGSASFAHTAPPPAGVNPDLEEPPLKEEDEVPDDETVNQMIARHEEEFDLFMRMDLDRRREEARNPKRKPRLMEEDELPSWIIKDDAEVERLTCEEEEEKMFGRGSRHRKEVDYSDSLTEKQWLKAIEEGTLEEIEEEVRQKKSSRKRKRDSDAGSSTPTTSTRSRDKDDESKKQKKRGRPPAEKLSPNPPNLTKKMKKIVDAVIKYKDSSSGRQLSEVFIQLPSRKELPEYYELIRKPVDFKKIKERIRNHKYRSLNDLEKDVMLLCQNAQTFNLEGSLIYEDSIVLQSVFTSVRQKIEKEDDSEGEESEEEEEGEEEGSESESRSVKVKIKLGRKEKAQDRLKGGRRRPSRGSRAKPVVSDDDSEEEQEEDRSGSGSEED
T1 sequence (P51531 whole entry): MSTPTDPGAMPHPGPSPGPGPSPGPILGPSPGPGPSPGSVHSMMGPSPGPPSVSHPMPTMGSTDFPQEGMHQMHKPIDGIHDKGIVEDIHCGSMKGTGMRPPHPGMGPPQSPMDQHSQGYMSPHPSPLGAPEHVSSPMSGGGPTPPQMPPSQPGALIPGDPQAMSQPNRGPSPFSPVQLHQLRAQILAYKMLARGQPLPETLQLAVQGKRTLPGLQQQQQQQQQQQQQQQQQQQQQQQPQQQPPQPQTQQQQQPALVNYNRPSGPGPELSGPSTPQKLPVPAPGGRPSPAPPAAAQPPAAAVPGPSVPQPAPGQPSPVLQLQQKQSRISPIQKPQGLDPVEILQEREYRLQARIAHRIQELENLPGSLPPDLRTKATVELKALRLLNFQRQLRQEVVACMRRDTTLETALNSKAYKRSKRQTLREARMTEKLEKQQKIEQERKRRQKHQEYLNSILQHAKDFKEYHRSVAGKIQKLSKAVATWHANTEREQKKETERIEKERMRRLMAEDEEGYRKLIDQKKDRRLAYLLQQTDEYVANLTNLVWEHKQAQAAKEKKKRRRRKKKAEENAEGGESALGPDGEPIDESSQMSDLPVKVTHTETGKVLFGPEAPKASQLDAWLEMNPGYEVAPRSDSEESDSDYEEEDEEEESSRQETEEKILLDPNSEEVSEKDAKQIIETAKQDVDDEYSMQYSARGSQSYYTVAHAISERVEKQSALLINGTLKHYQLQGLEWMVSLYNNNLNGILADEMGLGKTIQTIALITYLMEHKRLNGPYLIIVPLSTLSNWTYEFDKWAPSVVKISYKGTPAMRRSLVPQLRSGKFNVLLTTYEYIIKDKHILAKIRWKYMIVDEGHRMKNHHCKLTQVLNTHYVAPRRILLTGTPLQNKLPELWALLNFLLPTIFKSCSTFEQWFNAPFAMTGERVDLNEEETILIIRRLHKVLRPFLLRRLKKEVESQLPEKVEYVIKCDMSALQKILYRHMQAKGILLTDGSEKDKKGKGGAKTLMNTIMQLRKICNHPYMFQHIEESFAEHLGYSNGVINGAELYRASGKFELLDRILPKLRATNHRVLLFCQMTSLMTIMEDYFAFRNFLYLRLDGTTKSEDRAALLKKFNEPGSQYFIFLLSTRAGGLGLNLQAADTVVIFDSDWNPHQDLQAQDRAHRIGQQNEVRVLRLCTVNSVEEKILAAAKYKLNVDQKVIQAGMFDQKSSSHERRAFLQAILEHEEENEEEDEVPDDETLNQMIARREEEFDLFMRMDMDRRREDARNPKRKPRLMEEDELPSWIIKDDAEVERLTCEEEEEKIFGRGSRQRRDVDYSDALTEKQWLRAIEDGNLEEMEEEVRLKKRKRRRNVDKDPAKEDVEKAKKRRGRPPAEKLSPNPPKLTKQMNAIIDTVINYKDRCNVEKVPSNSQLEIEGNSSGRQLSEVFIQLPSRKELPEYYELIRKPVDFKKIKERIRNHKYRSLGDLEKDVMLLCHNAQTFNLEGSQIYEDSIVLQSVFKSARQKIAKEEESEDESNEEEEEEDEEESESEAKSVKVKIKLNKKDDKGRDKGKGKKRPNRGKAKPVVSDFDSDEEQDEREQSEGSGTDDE

Structure (SMILES)	Dmax [1]	DC50 [1]	Dmax [2]	DC50 [2]	Dmax [3]	DC50 [3]	Selectivity in MV411 [3]	SMARCA2 MSD A549 degradation 24 h: Average Dmax % [1]	SMARCA2 MSD MV411 degradation 24 h: average Dmax % [3]
C#Cc1ccc(CNC(=O)[C@@H]2C[C@@H](O)CN2C(=O)[C@@H](NC(=O)N2CCCC(N3CCC(c4cnc(N5CCN6c7cc(-c8ccccc8O)nnc7NC[C@H]6C5)nc4)CC3)C2)C(C)(C)C)cc1 (mixture of isomers) [I-245]	70 to 90%	> 100 nM	< 50%	> 100 nM	50 to 70%	10 to 100 nM	B (B (>100-500 fold))		
C#Cc1ccc(CNC(=O)[C@@H]2C[C@@H](O)CN2C(=O)[C@@H](NC(=O)[C@H]2CCC3(CC2)C[C@H](N2CCC(c4cnc(N5CCN6c7cc(-c8cccc(Cl)c8O)nnc7NC[C@H]6C5)nc4)CC2)C3)C(C)(C)C)cc1 (single isomer, unassigned) [I-105]		> 100 nM			50 to 70%	10 to 100 nM		A (A (>90% degradation))	
C#Cc1ccc(CNC(=O)[C@@H]2C[C@@H](O)CN2C(=O)[C@@H](NC(=O)[C@H]2CCC3(CC2)C[C@H](N2CCC(c4cnc(N5CCN6c7cc(-c8cccc(Cl)c8O)nnc7NC[C@H]6C5)nc4)CC2)C3)C(C)(C)C)cc1 (single isomer, unassigned) [I-152]	70 to 90%	> 100 nM				10 to 100 nM			C (C (50-70% degradation))
C#Cc1ccc(CNC(=O)[C@@H]2C[C@@H](O)CN2C(=O)[C@@H](NC(=O)[C@H]2CCC3(CC2)C[C@H](N2CCC(c4cnc(N5CCN6c7cc(-c8cccc(Cl)c8O)nnc7NC[C@@H]6C5)nc4)CC2)C3)C(C)(C)C)cc1 (single isomer, unassigned) [I-153]	> 90%	> 100 nM			70 to 90%	1 to 10 nM			
C#CCOc1cc(C(C(=O)N2C[C@H](O)C[C@H]2C(=O)NCc2ccc(-c3scnc3C)cc2O[C@H]2CC[C@@H](N3CCC(c4cnc(N5CCc6[nH]c7nnc(-c8ccccc8O)cc7c6[C@@H]5C)nc4)CC3)CC2)C(C)C)on1 (stereo partly drawn) [I-39]	50 to 70%	> 100 nM							
C#Cc1ccc(CNC(=O)[C@@H]2C[C@@H](O)CN2C(=O)[C@@H](NC(=O)C2CCC3(CC2)CC(N2CCC(c4cnc(N5CCN6c7cc(-c8ccccc8O)nnc7NC[C@H]6C5)nc4)CC2)C3)C2CCNCC2)cc1 (stereo partly drawn) [I-132]	< 50%	> 100 nM			< 50%	> 100 nM			

Now from value to compound:

Dmax [1]	DC50 [1]	Dmax [2]	DC50 [2]	Dmax [3]	DC50 [3]	Selectivity in MV411 [3]	SMARCA2 MSD A549 degradation 24 h: Average Dmax % [1]	SMARCA2 MSD MV411 degradation 24 h: average Dmax % [3]	Structure (SMILES)
> 90%	> 100 nM	< 50%	> 100 nM	50 to 70%	10 to 100 nM	C (C (10-100 fold))			C#Cc1ccc(CNC(=O)[C@@H]2C[C@@H](O)CN2C(=O)[C@@H](NC(=O)N2CC3(CC(N4CCC(N5CCC(N6CCc7[nH]c8nnc(-c9ccccc9O)cc8c7[C@H]6C)C5)CC4)C3)C2)C(C)(C)C)cc1 (mixture of isomers) [I-188]
< 50%	> 100 nM			< 50%	> 100 nM				Cc1cc(F)ccc1C#CCNC(=O)[C@@H]1C[C@@H](O)CN1C(=O)[C@@H](NC(=O)[C@H]1CCC2(CC1)C[C@H](N1CCC(c3cnc(N4CCN5c6cc(-c7ccccc7O)nnc6NC[C@H]5C4)nc3)CC1)C2)C(C)(C)C (single isomer, unassigned) [I-106]
> 90%	50 to 100 nM			50 to 70%	10 to 100 nM				Cc1ncsc1-c1ccc(CNC(=O)[C@@H]2C[C@@H](O)CN2C(=O)[C@@H](NC(=O)[C@H]2CCC3(CC2)C[C@H](N2CCN(c4cnc(N5CCc6[nH]c7nnc(-c8ccccc8O)cc7c6[C@H]5C)nc4)CC2)C3)C(C)(C)C)cc1 (single isomer, unassigned) [I-112]
	> 100 nM				10 to 100 nM		B (B (>70-90% degradation))	C (C (50-70% degradation))	Cc1ncsc1-c1ccc(CNC(=O)[C@@H]2C[C@@H](O)CN2C(=O)[C@@H](NC(=O)[C@H]2CCC3(CC2)C[C@H](N2CCN(c4cnc(N5CCc6[nH]c7nnc(-c8ccccc8O)cc7c6[C@H]5C)nc4)CC2)C3)C(C)(C)C)cc1 (single isomer, unassigned) [I-118]
	> 100 nM				10 to 100 nM		A (A (>90% degradation))	C (C (50-70% degradation))	C#Cc1ccc(CNC(=O)[C@@H]2C[C@@H](O)CN2C(=O)[C@@H](NC(=O)[C@H]2CCC3(CC2)C[C@H](N2CCC(c4cnc(N5CCN6c7cc(-c8cccc(Cl)c8O)nnc7NC[C@@H]6C5)nc4)CC2)C3)C(C)(C)C)cc1 (single isomer, unassigned) [I-154]
> 90%	50 to 100 nM				1 to 10 nM			B (B (>70-90% degradation))	C#Cc1ccc(CNC(=O)[C@@H]2C[C@@H](O)CN2C(=O)[C@@H](NC(=O)[C@H]2CCC3(CC2)C[C@H](N2CCC(c4cnc(N5CCN6c7cc(-c8cccc(F)c8O)nnc7NC[C@H]6C5)nc4)CC2)C3)C(C)(C)C)cc1 (single isomer, unassigned) [I-157]
< 50%									Cc1ncsc1-c1ccc(CNC(=O)[C@@H]2C[C@@H](O)CN2C(=O)[C@@H](NC(=O)N2CCC3(CC2)CC(N2CCC(c4cnc(N5CCc6[nH]c7nnc(-c8ccccc8O)cc7c6[C@@H]5C)nc4)CC2)C3)C(C)(C)C)cc1 [I-59]
	> 100 nM								Cc1cc(F)ccc1C#CCNC(=O)[C@@H]1C[C@@H](O)CN1C(=O)[C@@H](NC(=O)[C@H]1CCC2(CC1)C[C@H](N1CCC(c3cnc(N4CCN5c6cc(-c7ccccc7O)nnc6NC[C@H]5C4)nc3)CC1)C2)C(C)(C)C (stereo partly drawn) [I-115]

— patent publication US20250170248A1, “SMARCA DEGRADERS AND USES THEREOF” (Kymera Therapeutics, Inc., priority 2021, published 2025)
